{"source": "ChEMBL document CHEMBL3414520", "about": "“Synthesis, analgesic, anti-inflammatory and anti-ulcerogenic activities of certain novel Schiff's bases as fenamate isosteres” (Bioorg Med Chem Lett, 2015)", "key": {"physchem": {"test": "physchem", "conditions": "n-octanol/water", "description": "n-Octanol-water partition coefficient, log P of the compound"}, "Rattus norvegicus [1]": {"organism": "Rattus norvegicus", "test": "animal or person", "conditions": "Wistar, po, read-out: INH"}, "Rattus norvegicus [2]": {"organism": "Rattus norvegicus", "test": "animal or person", "conditions": "Wistar, po, read-out: INH", "remark": "listed apart in the source"}, "Rattus norvegicus [3]": {"organism": "Rattus norvegicus", "conditions": "in vivo, po, 10 mg/kg, 17 h"}, "Mus musculus": {"organism": "Mus musculus", "test": "animal or person", "conditions": "Swiss, po, 3 h, read-out: INH"}}}
{"smiles": "Cc1ccc(C(=O)Nc2ccccc2C(=O)N/N=C/c2ccccc2)cc1", "values": [{"measurement": "logP", "setting": "physchem", "value": 4.61}, {"measurement": "inhibition in vivo at 10 mg/kg", "setting": "Rattus norvegicus [1]", "value": 15.2, "unit": "%"}, {"measurement": "inhibition in vivo at 10 mg/kg", "setting": "Rattus norvegicus [2]", "value": 15.9, "unit": "%"}]}
{"smiles": "Cc1ccc(C(=O)Nc2ccccc2C(=O)N/N=C/c2ccc(O)cc2)cc1", "values": [{"measurement": "logP", "setting": "physchem", "value": 4.14}, {"measurement": "inhibition in vivo at 10 mg/kg", "setting": "Rattus norvegicus [1]", "value": 19.5, "unit": "%"}, {"measurement": "inhibition in vivo at 10 mg/kg", "setting": "Rattus norvegicus [2]", "value": 23.3, "unit": "%"}]}
{"smiles": "Cc1ccc(C(=O)Nc2ccccc2C(=O)N/N=C/c2ccc(O)c(O)c2)cc1", "values": [{"measurement": "UI", "setting": "Rattus norvegicus [3]", "value": 1.417}, {"measurement": "logP", "setting": "physchem", "value": 4.02}, {"measurement": "inhibition in vivo at 10 mg/kg", "setting": "Rattus norvegicus [1]", "value": 55.3, "unit": "%"}, {"measurement": "inhibition in vivo at 10 mg/kg", "setting": "Rattus norvegicus [2]", "value": 55.1, "unit": "%"}, {"measurement": "inhibition in vivo at 10 mg/kg", "setting": "Mus musculus", "value": 77.8, "unit": "%"}]}
{"smiles": "COc1cc(/C=N/NC(=O)c2ccccc2NC(=O)c2ccc(C)cc2)ccc1O", "values": [{"measurement": "logP", "setting": "physchem", "value": 4.1}, {"measurement": "inhibition in vivo at 10 mg/kg", "setting": "Rattus norvegicus [1]", "value": 19.5, "unit": "%"}, {"measurement": "inhibition in vivo at 10 mg/kg", "setting": "Rattus norvegicus [2]", "value": 23.3, "unit": "%"}]}
{"smiles": "Cc1ccc(C(=O)Nc2ccccc2C(=O)N/N=C/c2ccc(Cl)cc2Cl)cc1", "values": [{"measurement": "logP", "setting": "physchem", "value": 6.12}, {"measurement": "inhibition in vivo at 10 mg/kg", "setting": "Rattus norvegicus [1]", "value": 0.35, "unit": "%"}, {"measurement": "inhibition in vivo at 10 mg/kg", "setting": "Rattus norvegicus [2]", "value": 1.06, "unit": "%"}]}
{"smiles": "COc1ccc(/C=N/NC(=O)c2ccccc2NC(=O)c2ccc(C)cc2)cc1", "values": [{"measurement": "logP", "setting": "physchem", "value": 4.66}, {"measurement": "inhibition in vivo at 10 mg/kg", "setting": "Rattus norvegicus [1]", "value": 19.3, "unit": "%"}, {"measurement": "inhibition in vivo at 10 mg/kg", "setting": "Rattus norvegicus [2]", "value": 22.6, "unit": "%"}]}
{"smiles": "COc1cc(OC)c(OC)cc1/C=N/NC(=O)c1ccccc1NC(=O)c1ccc(C)cc1", "values": [{"measurement": "UI", "setting": "Rattus norvegicus [3]", "value": 1.75}, {"measurement": "logP", "setting": "physchem", "value": 4.23}, {"measurement": "inhibition in vivo at 10 mg/kg", "setting": "Rattus norvegicus [1]", "value": 62.4, "unit": "%"}, {"measurement": "inhibition in vivo at 10 mg/kg", "setting": "Rattus norvegicus [2]", "value": 62.2, "unit": "%"}, {"measurement": "inhibition in vivo at 10 mg/kg", "setting": "Mus musculus", "value": 46.2, "unit": "%"}]}
{"smiles": "COc1cc(/C=N/NC(=O)c2ccccc2NC(=O)c2ccc(C)cc2)cc(OC)c1OC", "values": [{"measurement": "UI", "setting": "Rattus norvegicus [3]", "value": 1.583}, {"measurement": "logP", "setting": "physchem", "value": 4.63}, {"measurement": "inhibition in vivo at 10 mg/kg", "setting": "Rattus norvegicus [1]", "value": 62.8, "unit": "%"}, {"measurement": "inhibition in vivo at 10 mg/kg", "setting": "Rattus norvegicus [2]", "value": 64.3, "unit": "%"}, {"measurement": "inhibition in vivo at 10 mg/kg", "setting": "Mus musculus", "value": 34.2, "unit": "%"}]}
{"smiles": "COc1cc(OC)c(/C=N/NC(=O)c2ccccc2NC(=O)c2ccc(C)cc2)c(OC)c1", "values": [{"measurement": "logP", "setting": "physchem", "value": 4.87}, {"measurement": "inhibition in vivo at 10 mg/kg", "setting": "Rattus norvegicus [1]", "value": 13.1, "unit": "%"}, {"measurement": "inhibition in vivo at 10 mg/kg", "setting": "Rattus norvegicus [2]", "value": 14.5, "unit": "%"}]}
{"smiles": "Cc1ccc(C(=O)Nc2ccccc2C(=O)N/N=C/c2ccc(N(C)C)cc2)cc1", "values": [{"measurement": "logP", "setting": "physchem", "value": 4.41}, {"measurement": "inhibition in vivo at 10 mg/kg", "setting": "Rattus norvegicus [1]", "value": 22.3, "unit": "%"}, {"measurement": "inhibition in vivo at 10 mg/kg", "setting": "Rattus norvegicus [2]", "value": 22.3, "unit": "%"}]}
